Measured values published in patent publication US10646488B2 (Araxes Pharma LLC, priority 2016, dated 2020).

target: T1, KRAS G12C 1-169, his-tagged protein, GDP-loaded (Homo sapiens, UniProt P01116, G12C); assay: Covalent binding (% modification) to KRAS G12C by mass spectrometry; settings: covalent binding to KRAS G12C after a ten minute incubation period
T1 construct: KRAS G12C 1-169, his-tagged protein, GDP-loaded
Procedure: Test compounds were prepared as 10 mM stock solutions in DMSO (Fisher cat # BP-231-100). KRAS G12C 1-169, his-tagged protein, GDP-loaded was diluted to 2 μm in buffer (20 mM Hepes, 150 mM NaCl, 1 mM MgCl2). Compounds were tested for activity as follows:
Compounds were diluted to 50× final test concentration in DMSO in 96-well storage plates. Compound stock solutions were vortexed before use and observed carefully for any sign of precipitation. Dilutions were as follow: • For 100 μM final compound concentration, compounds were diluted to 5000 μM (5 μl 10 mM compound stock+5 μl DMSO and mixed well by pipetting. • For 30 μM final compound concentration, compounds were diluted to 1500 μM (3 μl 10 mM compound stock+17 μl DMSO) and mixed well by pipetting. • For 10 μM final compound concentration, compounds were diluted to 500 μM (2 μl 10 mM compound stock+38 μl DMSO) and mixed well by pipetting. 49 μl of the stock protein solution was added to each well of a 96-well PCR plate (Fisher cat #1423027). 1 μl of the diluted 50× compounds were added to appropriate wells in the PCR plate using 12-channel pipettor. Reactions were mixed carefully and thoroughly by pipetting up/down with a 200·1 multi-channel pipettor. […] 5 μl of 2% formic acid (Fisher cat # A117) in DI H2O was then added to each well followed by mixing with a pipette. The plate was then resealed with aluminum seal and stored on dry ice until analyzed as described below.
The above described assays were analyzed by mass spectrometry according to one of the following two procedures:
The MS instrument is set to positive polarity, 2 GHz resolution, and low mass (1700) mode and allowed to equilibrate for 30 minutes. The instrument is then calibrated, switched to acquisition mode and the appropriate method loaded.
After another 30 minute equilibration time, a blank batch (i.e., buffer) is run to ensure equipment is operating properly. The samples are thawed at 37° C. for 10 minutes, briefly centrifuged, and transfer to the bench top. Wells A1 and H12 are spiked with 1 uL 500 uM internal standard peptide, and the plates centrifuged at 2000×g for 5 minutes. The method is then run and masses of each individual well recorded.
The masses (for which integration data is desired) for each well are pasted into the platemap and exported from the analysis. Masses for the internal standards are exported as well. The data at 50 ppm is extracted for the +19 charge state, and identity of well A1 is assigned using the internal standard spike and integrated. Peak data is exported as a TOF list and the above steps are repeated individually, for the +20, 21, 22, 23, 24, and 25 charge states.
The masses and peak intensities of KRAS G12C protein species were measured using a Dionex RSLCnano system (Thermo Scientific) connected to a Q Exactive Plus mass spectrometer (Thermo Scientific).
[…] of sample was each loaded onto a Aeris™ 3.6 μm WIDEPORE C4 200 Å, LC Column 50×2.1 mm column maintained at 40° C. at a flow rate of 600 μl min^−1 with […] (0.1% formic acid in acetonitrile). The liquid chromatography conditions were 20% solvent B for 1 min, 20% to 60% solvent B for 1.5 min, 60% to 90% solvent for 0.5 min, 90% solvent B for 0.2 min, 90% to 20% solvent B for 0.2 min, and then equilibrated for 1.6 min before the following sample injection. The flow rate was maintained at 600 μl min^−1 throughout the sample analysis.
The mass spectrometer was operated in profile mode at a resolution of 17500, 5 microscans, using 50 msec max injection time and an AGC target of 1e6, and a full mass range from 800-1850 m/z was recorded. The HCD trapping gas was optimized for maximum sensitivity for intact proteins. The ionization method was electrospray ionization, which used a spray voltage of 4 kV, sheath gas flow set to 50 au, auxiliary gas flow set to 10 au and sweep gas flow set to 1 au. […]

Question: Which Binding % does the source give for `C=CC(=O)N1[C@H](C)CN(c2nc(N3CC(N(C)C)C3)nc3c(F)c(-c4c(C)ccc5[nH]ncc45)c(Cl)cc23)C[C@@H]1C` [Compound 39, 1-((2R,6S)-4-(6-chloro-2-(3-(dimethylamino)azetidin-1-yl)-8-fluoro-7-(5-methyl-1H-indazol-4-yl)quinazolin-4-yl)-2,6-dimethyl-piperazin-1-yl) prop-2-en-1-one] here?
Answer: ++ (++ indicates binding activity from 50 to 90%)

Question: For `C=CC(=O)N1C[C@@H](C)N(c2nc(N3CC(N(C)C)C3)nc3c(F)c(-c4c(C)ccc5[nH]ncc45)c(Cl)cc23)[C@@H](C)C1` [Compound 40, 1-((3S,5R)-4-(6-chloro-2-(3-(dimethylamino)azetidin-1-yl)-8-fluoro-7-(5-methyl-1H-indazol-4-yl)quinazolin-4-yl)-3,5-dimethyl-piperazin-1-yl) prop-2-en-1-one], which Binding % is on record?
Answer: ++ (++ indicates binding activity from 50 to 90%)

Question: How did the Binding % turn out when `C=CC(=O)N1C[C@H](C)N(c2nc(OCCN(CC)CC)nc3c(F)c(-c4c(O)cccc4F)c(Cl)cc23)C[C@H]1C` (atropisomer, axis not shown) [Compound 75, 1-((2R,5S)-4-((S)-6-chloro-2-(2-(diethylamino)ethoxy)-8-fluoro-7-(2-fluoro-6-hydroxyphenyl)quinazolin-4-yl)-2,5-dimethyl-piperazin-1-yl) prop-2-en-1-one] was run?
Answer: +++ (+++ indicates binding activity greater than 90%)

Question: Which Binding % does the source give for `C=CC(=O)N1C[C@H](C)N(c2nc(OCCN(CC)CC)nc3c(F)c(-c4c(O)cccc4F)c(Cl)cc23)C[C@H]1C` (atropisomer, axis not shown) [Compound 74, 1-((2R,5S)-4-((R)-6-chloro-2-(2-(diethylamino)ethoxy)-8-fluoro-7-(2-fluoro-6-hydroxyphenyl)quinazolin-4-yl)-2,5-dimethyl-piperazin-1-yl) prop-2-en-1-one] here?
Answer: + (+ indicates binding activity up to 50%)

same assay, conditions: covalent binding to KRAS G12C after a three minute incubation period

Question: Which Binding % does the source give for `C=CC(=O)N1C[C@H](C)N(c2nc(N3CC(N(C)C4CCC4)C3)nc3c(F)c(-c4c(O)cccc4F)c(Cl)cc23)C[C@H]1C` (atropisomer, axis not shown) [Compound 138, 1-((2R,5S)-4-(6-chloro-2-(3-(cyclobutyl (methyl)amino)azetidin-1-yl)-8-fluoro-7-((S)-2-fluoro-6-hydroxyphenyl)quinazolin-4-yl)-2,5-dimethyl-piperazin-1-yl) prop-2-en-1-one] here?
Answer: +++ (+++ indicates binding activity greater than 90%)

Question: Which Binding % does the source give for `C=CC(=O)N1C[C@H](C)N(c2nc(N3CC(N(C)C4CCC4)C3)nc3c(F)c(-c4c(O)cccc4F)c(Cl)cc23)C[C@H]1C` (atropisomer, axis not shown) [Compound 139, 1-((2R,5S)-4-(6-chloro-2-(3-(cyclobutyl (methyl)amino)azetidin-1-yl)-8-fluoro-7-((R)-2-fluoro-6-hydroxyphenyl)quinazolin-4-yl)-2,5-dimethyl-piperazin-1-yl) prop-2-en-1-one] here?
Answer: + (+ indicates binding activity greater than 0% and up to 50%)

Question: `C=CC(=O)N1C[C@H](C)N(c2nc(N3CC(N(CC)CC)C3)nc3c(F)c(-c4c(C)ccc5cn[nH]c45)c(Cl)cc23)C[C@H]1C` [Compound 129, 1-((2R,5S)-4-(6-chloro-2-(3-(diethylamino)azetidin-1-yl)-8-fluoro-7-(6-methyl-1H-indazol-7-yl)quinazolin-4-yl)-2,5-dimethyl-piperazin-1-yl) prop-2-en-1-one] was tested. Which Binding % did it give?
Answer: ++ (++ indicates binding activity from 50 to 90%)

Question: For `C=CC(=O)N1C[C@H](C)N(c2nc(N3CC(N(C)C)C3)nc3c(F)c(-c4c(C)ccc5[nH]ncc45)c(Cl)cc23)C[C@H]1C` (atropisomer, axis not shown) [Compound 131, 1-((2R,5S)-4-(6-chloro-2-(3-(dimethylamino)azetidin-1-yl)-8-fluoro-7-((S)-5-methyl-1H-indazol-4-yl)quinazolin-4-yl)-2,5-dimethyl-piperazin-1-yl) prop-2-en-1-one], which Binding % is on record?
Answer: + (+ indicates binding activity greater than 0% and up to 50%)

Question: Which Binding % does the source give for `C=CC(=O)N1C[C@H](C)N(c2nc(OCCN3CCC(F)(F)C3)nc3c(F)c(-c4c(C)ccc5cn[nH]c45)c(Cl)cc23)C[C@H]1C` [Compound 202, 1-((2R,5S)-4-(6-chloro-2-(2-(3,3-difluoro-pyrrolidin-1-yl)ethoxy)-8-fluoro-7-(6-methyl-1H-indazol-7-yl)quinazolin-4-yl)-2,5-dimethyl-piperazin-1-yl) prop-2-en-1-one] here?
Answer: +++ (+++ indicates binding activity greater than 90%)

Question: Which Binding % does the source give for `[2H]C([2H])([2H])N(C1CN(c2nc(N3C[C@@H](C)N(C(=O)C=C)C[C@@H]3C)c3cc(Cl)c(-c4cc(O)cc5ccccc45)c(F)c3n2)C1)C([2H])([2H])[2H]` (atropisomer, axis not shown) [Compound 229] here?
Answer: + (+ indicates binding activity greater than 0% and up to 50%)

Question: Which Binding % does the source give for `C=CC(=O)N1C[C@H](C)N(c2nc(N3CC4(CCCN4C)C3)nc3c(F)c(-c4c(O)cccc4F)c(Cl)cc23)C[C@H]1C` [Compound 177, 1-((2R,5S)-4-(6-chloro-8-fluoro-7-(2-fluoro-6-hydroxyphenyl)-2-(5-methyl-2,5-diazaspiro[3.4]octan-2-yl)quinazolin-4-yl)-2,5-dimethyl-piperazin-1-yl) prop-2-en-1-one] here?
Answer: ++ (++ indicates binding activity from 50 to 90%)

Question: Which Binding % does the source give for `C=CC(=O)N1C[C@H](C)N(c2nc(N3CC(N(C)C)C3)nc3c(F)c(-c4cc(B5OC(C)(C)C(C)(C)O5)cc5ccccc45)c(Cl)cc23)C[C@H]1C` [Compound 179, 1-((2R,5S)-4-(6-chloro-2-(3-(dimethylamino)azetidin-1-yl)-8-fluoro-7-(3-(4,4,5,5-tetramethyl-1,3,2-dioxaborolan-2-yl)naphthalen-1-yl)quinazolin-4-yl)-2,5-dimethyl-piperazin-1-yl) prop-2-en-1-one] here?
Answer: + (+ indicates binding activity greater than 0% and up to 50%)

Question: With `C=CC(=O)N1CCN(c2nc(N3CC(N(C)C)C3)nc3c(F)c(-c4c(O)cccc4F)c(Cl)cc23)C[C@@H]1C` [Compound 88, 1-((2S)-4-(6-chloro-2-(3-(dimethylamino)azetidin-1-yl)-8-fluoro-7-(2-fluoro-6-hydroxyphenyl)quinazolin-4-yl)-2-methyl-piperazin-1-yl) prop-2-en-1-one] as the molecule, how does the Binding % read?
Answer: + (+ indicates binding activity greater than 0% and up to 50%)

Question: How did the Binding % turn out when `C=CC(=O)N1C[C@H](C)N(c2nc(OCCN3CCC(F)(F)C3)nc3c(F)c(-c4c(O)ccc5ccccc45)c(Cl)cc23)C[C@H]1C` [Compound 213, 1-((2R,5S)-4-(6-chloro-2-(2-(3,3-difluoropyrrolidin-1-yl)ethoxy)-8-fluoro-7-(2-hydroxynaphthalen-1-yl)quinazolin-4-yl)-2,5-dimethyl-piperazin-1-yl) prop-2-en-1-one] was run?
Answer: + (+ indicates binding activity greater than 0% and up to 50%)

Question: `C=CC(=O)N1C[C@H](C)N(c2nc(N3CC(N4CCC(F)(F)C4)C3)nc3c(F)c(-c4c(O)cccc4F)c(Cl)cc23)C[C@H]1C` [Compound 103, 1-((2R,5S)-4-(6-chloro-2-(3-(3,3-difluoro-pyrrolidin-1-yl)azetidin-1-yl)-8-fluoro-7-(2-fluoro-6-hydroxyphenyl)quinazolin-4-yl)-2,5-dimethyl-piperazin-1-yl) prop-2-en-1-one] was tested. Which Binding % did it give?
Answer: + (+ indicates binding activity greater than 0% and up to 50%)
